One assay has as its target CDK2/cyclin E (Homo sapiens, UniProt P24941). Put plainly: Assay of kinase activity (ADP-Glo). Format: biochemical. The note with it: kinase inhibitory activity, read-out: CDK2/E1 IC50. In outline: (§1)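 Kinase preincubated 10 min with compound in 50 mM Hepes, 10 mM MgCl2, 0.01% Brij35, 2 mM DTT, then substrate/ATP added for 60 min at 25 °C. ADP formed measured by ADP-Glo luminescence; IC50 by nonlinear concentration-response fitting.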

The target in a further assay is CDK4/cyclin D1 (Homo sapiens, UniProt P11802). Put plainly: Assay of kinase activity (ADP-Glo). Conditions: kinase inhibitory activity. Format: biochemical. In outline:
as §1

A further assay deals with CDK9/cyclin T1 (Homo sapiens, UniProt P50750). In words: Assay of kinase activity (ADP-Glo). Type of assay: biochemical. The note with it: kinase inhibitory activity. In a few lines: (§2)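 ADP production quantified by luminescence after 60 min kinase reaction at 25 °C, started with substrate/ATP following 10 min enzyme-compound preincubation. Buffer: 50 mM Hepes, 10 mM MgCl2, 0.01% Brij35, 2 mM DTT. IC50 obtained by nonlinear curve fitting of inhibition data.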

The next assay concerns the target CDK6/cyclin D3 (Homo sapiens, UniProt Q00534). Put plainly: Assay of kinase activity (ADP-Glo). Type of assay: biochemical. Conditions: kinase inhibitory activity. In outline: as §2
In assay [1] the test system is Human ovarian cancer OVCAR3 cells. Put plainly: Assay of cell proliferation (CellTiter-Glo). Format: cell-based. The note with it: Homo sapiens, OVCAR-3, 144 h, 6 days, read-out: OVCAR3 IC50 of cell proliferation inhibitory activity. In outline:
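OVCAR3 cells, 2000/well in RPMI 1640 with 20% FBS, treated with nine 3-fold dilutions from 10 µM to 0.1 nM (0.5% DMSO) for 6 days at 37 °C. Viability by CellTiter-Glo luminescence; IC50 by four-parameter fit.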

The subject of assay [2] is human gastric cancer MKN1 cells. Put plainly: Assay of cell proliferation (CellTiter-Glo). Format: cell-based. Conditions: Homo sapiens, MKN-1, 144 h; MNK1, 6 days; read-out: MKN1 IC50 of cell proliferation inhibitory activity. In a few lines: (§3)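 Cells seeded per line at growth-adapted densities, treated 6 days at 37 °C/5% CO2 with nine 3-fold dilutions (10 µM to 0.1 nM final, 0.5% DMSO). Viability by CellTiter-Glo luminescence; IC50 from four-parameter fit.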

Assay [3] concerns human breast cancer HCC1806 cells. In words: Assay of cell proliferation (CellTiter-Glo). Format: cell-based. Conditions: Homo sapiens, 144 h, 6 days, read-out: HCC1806 IC50 of cell proliferation inhibitory activity. In outline: as §3
For assay [4], the system named is human acute myeloid leukemia MV-4-11 cells. Put plainly: Assay of cell proliferation (CellTiter-Glo). Conditions: MV4-11, 144 h, 6 days, read-out: MV-4-11 IC50 of cell proliferation inhibitory activity. Type of assay: cell-based. In outline: as §3

Sequence of CDK9/cyclin T1 (P50750 whole entry, species assumed): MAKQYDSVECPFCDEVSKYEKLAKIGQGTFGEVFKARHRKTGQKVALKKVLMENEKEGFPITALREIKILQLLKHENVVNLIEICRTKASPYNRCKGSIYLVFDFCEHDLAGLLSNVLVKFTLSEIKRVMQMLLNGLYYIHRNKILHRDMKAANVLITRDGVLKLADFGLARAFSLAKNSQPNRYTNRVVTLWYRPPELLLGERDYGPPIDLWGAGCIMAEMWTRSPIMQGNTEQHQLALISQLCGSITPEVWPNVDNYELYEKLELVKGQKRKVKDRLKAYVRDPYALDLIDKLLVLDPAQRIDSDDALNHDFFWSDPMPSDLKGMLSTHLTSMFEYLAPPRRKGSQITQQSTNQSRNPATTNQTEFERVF
Sequence of CDK9/cyclin T1 (O60563 whole entry partner, species assumed): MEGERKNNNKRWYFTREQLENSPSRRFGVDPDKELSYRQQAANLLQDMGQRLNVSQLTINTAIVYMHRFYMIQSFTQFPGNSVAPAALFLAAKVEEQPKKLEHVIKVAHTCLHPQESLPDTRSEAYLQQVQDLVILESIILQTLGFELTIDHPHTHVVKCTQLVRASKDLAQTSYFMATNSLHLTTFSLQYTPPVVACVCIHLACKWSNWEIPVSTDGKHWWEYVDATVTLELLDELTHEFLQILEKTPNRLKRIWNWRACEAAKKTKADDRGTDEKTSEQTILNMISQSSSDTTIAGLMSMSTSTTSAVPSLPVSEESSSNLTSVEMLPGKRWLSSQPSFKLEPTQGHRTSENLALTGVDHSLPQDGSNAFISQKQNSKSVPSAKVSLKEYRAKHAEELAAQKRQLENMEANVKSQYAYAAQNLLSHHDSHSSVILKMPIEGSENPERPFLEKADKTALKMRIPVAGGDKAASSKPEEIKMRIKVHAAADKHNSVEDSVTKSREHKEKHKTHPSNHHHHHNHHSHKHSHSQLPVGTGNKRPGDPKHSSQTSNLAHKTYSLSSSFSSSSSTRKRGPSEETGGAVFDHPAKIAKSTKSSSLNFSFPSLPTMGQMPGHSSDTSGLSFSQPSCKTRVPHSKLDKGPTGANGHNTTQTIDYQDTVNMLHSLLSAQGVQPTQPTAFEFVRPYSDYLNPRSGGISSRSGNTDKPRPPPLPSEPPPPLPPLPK
Sequence of CDK6/cyclin D3 (Q00534 whole entry, species assumed): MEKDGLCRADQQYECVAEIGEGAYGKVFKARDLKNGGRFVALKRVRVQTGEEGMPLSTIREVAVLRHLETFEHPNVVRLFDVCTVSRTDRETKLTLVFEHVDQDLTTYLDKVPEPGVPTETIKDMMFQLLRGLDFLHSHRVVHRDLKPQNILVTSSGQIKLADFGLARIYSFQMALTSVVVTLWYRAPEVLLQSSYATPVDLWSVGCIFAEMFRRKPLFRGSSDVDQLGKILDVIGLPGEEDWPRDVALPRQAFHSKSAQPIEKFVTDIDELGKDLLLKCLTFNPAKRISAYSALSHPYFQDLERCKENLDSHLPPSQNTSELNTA
Sequence of CDK6/cyclin D3 (P30281 whole entry partner, species assumed): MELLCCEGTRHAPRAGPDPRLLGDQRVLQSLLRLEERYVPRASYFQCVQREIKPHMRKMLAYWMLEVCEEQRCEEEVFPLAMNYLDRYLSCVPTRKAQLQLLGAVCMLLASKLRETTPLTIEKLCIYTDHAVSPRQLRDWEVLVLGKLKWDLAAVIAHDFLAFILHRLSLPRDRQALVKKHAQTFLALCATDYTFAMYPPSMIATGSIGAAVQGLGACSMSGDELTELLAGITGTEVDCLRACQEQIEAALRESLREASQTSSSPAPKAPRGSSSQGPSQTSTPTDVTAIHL
Sequence of CDK4/cyclin D1 (P11802 whole entry, species assumed): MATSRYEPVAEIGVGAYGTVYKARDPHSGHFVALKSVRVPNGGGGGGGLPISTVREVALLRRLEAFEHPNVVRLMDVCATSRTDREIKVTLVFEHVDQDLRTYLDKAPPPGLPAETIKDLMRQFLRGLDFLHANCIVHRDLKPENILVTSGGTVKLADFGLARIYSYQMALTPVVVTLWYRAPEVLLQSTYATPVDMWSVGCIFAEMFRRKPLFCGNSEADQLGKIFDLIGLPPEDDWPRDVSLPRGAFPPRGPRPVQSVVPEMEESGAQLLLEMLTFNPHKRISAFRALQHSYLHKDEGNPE
Sequence of CDK4/cyclin D1 (P24385 whole entry partner, species assumed): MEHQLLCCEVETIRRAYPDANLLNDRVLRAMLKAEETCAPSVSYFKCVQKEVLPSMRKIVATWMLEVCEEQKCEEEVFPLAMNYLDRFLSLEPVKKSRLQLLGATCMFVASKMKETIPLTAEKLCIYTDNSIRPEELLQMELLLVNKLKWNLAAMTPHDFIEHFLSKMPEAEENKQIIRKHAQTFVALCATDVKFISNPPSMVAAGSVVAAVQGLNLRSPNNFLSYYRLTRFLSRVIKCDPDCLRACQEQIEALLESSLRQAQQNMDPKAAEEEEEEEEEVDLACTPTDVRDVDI

With `CC(C)n1nnc2ccc3cnc(Nc4ccc(C(=O)N5CCCN(C)CC5)cc4)nc3c21` [Example I-34, (4-((1-Isopropyl-1H-[1,2,3]triazolo[4,5-H]quinazolin-8-yl)amino)phenyl)(4-methyl-1,4-diazepan-1-yl)methanone], the IC50 at CDK2/cyclin E amounted to 0.09 nM; against CDK4/cyclin D1 it was 0.7 nM; against CDK9/cyclin T1 it was 2 nM; against CDK6/cyclin D3, 19 nM; in assay [1], 7 nM; in assay [2] it was 5 nM. The values for the IC50 in assay [3] and in assay [4] were 6 nM and 2 nM, respectively.
On to `C[C@H](CO)n1nnc2ccc3cnc(Nc4ccc(C(=O)N5CCOCC5)cc4)nc3c21` [Example I-51, (R)-(4-((1-(1-Hydroxypropan-2-yl)-1H-[1,2,3]triazolo[4,5-H]quinazolin-8-yl)amino)phenyl)(morpholino)methanone], for which the IC50 on CDK2/cyclin E was determined as 2 nM; on CDK4/cyclin D1, 7 nM; at CDK9/cyclin T1, 122 nM; against CDK6/cyclin D3 it was 149 nM; in assay [1], 301 nM; in assay [2], 100 nM. The IC50 in assay [3] was 441 nM; in assay [4], 51 nM.
Consider `C[C@@H](n1nnc2ccc3cnc(Nc4ccc(C(=O)N5CC[C@H](N)C5)cc4)nc3c21)C(C)(C)O` [Example I-54, ((S)-3-Aminopyrrolidin-1-yl)(4-((1-((R)-3-hydroxy-3-methylbutan-2-yl)-1H-[1,2,3]triazolo[4,5-h]quinazolin-8-yl)amino)phenyl)methanone], for which the IC50 on CDK2/cyclin E was found to be 1 nM; against CDK4/cyclin D1 it was 2 nM; at CDK9/cyclin T1 it was 8 nM; on CDK6/cyclin D3, 16 nM; in assay [1], 192 nM; in assay [2], 49 nM. Also, the IC50 in assay [3] is 268 nM; in assay [4] it was 7 nM.
On to `CC(C)N[C@H]1CCN(C(=O)c2ccc(Nc3ncc4ccc5nnn([C@H](C)C(C)(C)O)c5c4n3)cc2)C1` [Example I-55, (4-((1-((R)-3-hydroxy-3-methylbutan-2-yl)-1H-[1,2,3]triazolo[4,5-H]quinazolin-8-yl)amino)phenyl)((S)-3-(isopropylamino)pyrrolidin-1-yl)methanone], for which the IC50 at CDK2/cyclin E was determined as 0.7 nM; against CDK4/cyclin D1, 2 nM; at CDK9/cyclin T1, 6 nM; against CDK6/cyclin D3, 18 nM; in assay [1], 31 nM; in assay [2] it was 15 nM. Further, the IC50 in assay [3] amounted to 80 nM; in assay [4], 5 nM.
For the molecule `C[C@@H](n1nnc2ccc3cnc(Nc4ccc(C(=O)N5CCNCC5)cc4)nc3c21)C(C)(C)O` [Example I-56, (R)-(4-((1-(3-Hydroxy-3-methylbutan-2-yl)-1H-[1,2,3]triazolo[4,5-H]quinazolin-8-yl)amino)phenyl)(piperazin-1-yl)methanone], the IC50 at CDK2/cyclin E was found to be 0.8 nM; against CDK4/cyclin D1, 1 nM; against CDK9/cyclin T1, 15 nM; on CDK6/cyclin D3, 4 nM; in assay [1] it was 275 nM; in assay [2] it was 81 nM. For the same molecule, the IC50 in assay [3] worked out at 365 nM; in assay [4] it was 11 nM.
Regarding `C[C@@H](n1nnc2ccc3cnc(Nc4ccc(C(=O)N5CCN(C)CC5)cc4)nc3c21)C(C)(C)O` [Example I-57, (R)-(4-((1-(3-Hydroxy-3-methylbutan-2-yl)-1H-[1,2,3]triazolo[4,5-H]quinazolin-8-yl)amino)phenyl)(4-methylpiperazin-1-yl)methanone], the IC50 at CDK2/cyclin E was 0.9 nM; against CDK4/cyclin D1, 1 nM; at CDK9/cyclin T1 it was 23 nM; at CDK6/cyclin D3 it was 4 nM; in assay [1], 32 nM; in assay [2] it was 17 nM. Besides, the values for the IC50 in assay [3] and in assay [4] were 465 nM and 11 nM, respectively.
On to `C[C@@H](n1nnc2ccc3cnc(Nc4ccc(C(=O)N5CCOCC5)cc4)nc3c21)C(C)(C)O` [Example I-58, (R)-(4-((1-(3-Hydroxy-3-methylbutan-2-yl)-1H-[1,2,3]triazolo[4,5-H]quinazolin-8-yl)amino)phenyl)(morpholino)methanone], for which the IC50 on CDK2/cyclin E worked out at 1 nM; against CDK4/cyclin D1 it was 2 nM; at CDK9/cyclin T1, 19 nM; against CDK6/cyclin D3, 9 nM; in assay [1], 313 nM; in assay [2] it was 90 nM. Also, the IC50 in assay [3] was 656 nM; in assay [4], 19 nM.
As to `C[C@@H](n1nnc2ccc3cnc(Nc4ccc(C(=O)N5CCS(=O)(=O)CC5)cc4)nc3c21)C(C)(C)O` [Example I-59, (R)-(1,1-Dioxothiomorpholino)(4-((1-(3-hydroxy-3-methylbutan-2-yl)-1H-[1,2,3]triazolo[4,5-H]quinazolin-8-yl)amino)phenyl)methanone], the IC50 worked out at 1 nM on CDK2/cyclin E; 2 nM at CDK4/cyclin D1; 46 nM against CDK9/cyclin T1; 15 nM against CDK6/cyclin D3; 389 nM in assay [1]; 127 nM in assay [2]. The IC50 was found to be 543 nM in assay [3] and 18 nM in assay [4].
As to `C[C@@H](n1nnc2ccc3cnc(Nc4ccc(C(=O)N5CCCNCC5)cc4)nc3c21)C(C)(C)O` [Example I-60, (R)-(1,4-Diazepan-1-yl)(4-((1-(3-hydroxy-3-methylbutan-2-yl)-1H-[1,2,3]triazolo[4,5-H]quinazolin-8-yl)amino)phenyl)methanone], the IC50 is 0.8 nM at CDK2/cyclin E; 1 nM on CDK4/cyclin D1; 19 nM against CDK9/cyclin T1; 3 nM against CDK6/cyclin D3; 88 nM in assay [1]; 41 nM in assay [2]. Moreover, the IC50 is 98 nM in assay [3] and 12 nM in assay [4].
With `C[C@@H](n1nnc2ccc3cnc(Nc4ccc(C(=O)N5CCCN(C)CC5)cc4)nc3c21)C(C)(C)O` [Example I-61, (R)-(4-((1-(3-Hydroxy-3-methylbutan-2-yl)-1H-[1,2,3]triazolo[4,5-H]quinazolin-8-yl)amino)phenyl)(4-methyl-1,4-diazepan-1-yl)methanone], the IC50 on CDK2/cyclin E was determined as 0.9 nM; against CDK4/cyclin D1 it was 1 nM; on CDK9/cyclin T1 it was 16 nM; on CDK6/cyclin D3, 2 nM; in assay [1], 11 nM; in assay [2], 8 nM. Besides, the IC50 in assay [3] turned out to be 8 nM; in assay [4], 4 nM.
On to `C[C@@]1(O)CCC[C@H]1n1nnc2ccc3cnc(Nc4ccc(C(=O)N5CC[C@H](N)C5)cc4)nc3c21` [Example I-62, ((S)-3-Aminopyrrolidin-1-yl)(4-((1-((1R,2R)-2-hydroxy-2-methylcyclopentyl)-1H-[1,2,3]triazolo[4,5-H]quinazolin-8-yl)amino)phenyl)methanone], for which the IC50 is 0.08 nM on CDK2/cyclin E; 0.5 nM on CDK4/cyclin D1; 3 nM against CDK9/cyclin T1; 4 nM against CDK6/cyclin D3; 28 nM in assay [1]; 8 nM in assay [2]. Moreover, the IC50 in assay [3] was 54 nM; in assay [4] it was 5 nM.
As to `CC(C)N[C@H]1CCN(C(=O)c2ccc(Nc3ncc4ccc5nnn([C@@H]6CCC[C@@]6(C)O)c5c4n3)cc2)C1` [Example I-63, (4-((1-((1R,2R)-2-Hydroxy-2-methylcyclopentyl)-1H-[1,2,3]triazolo[4,5-H]quinazolin-8-yl)amino)phenyl)((S)-3-(isopropylamino)pyrrolidin-1-yl)methanone], the IC50 on CDK2/cyclin E was determined as 0.08 nM; on CDK4/cyclin D1, 0.6 nM; on CDK9/cyclin T1 it was 3 nM; at CDK6/cyclin D3 it was 3 nM; in assay [1], 6 nM; in assay [2], 1 nM. Also, the IC50 is 15 nM in assay [3] and 1 nM in assay [4].
Consider `CN(C)[C@H]1CCN(C(=O)c2ccc(Nc3ncc4ccc5nnn([C@@H]6CCC[C@@]6(C)O)c5c4n3)cc2)C1` [Example I-64, ((S)-3-(Dimethylamino)pyrrolidin-1-yl)(4-((1-((1R,2R)-2-hydroxy-2-methylcyclopentyl)-1H-[1,2,3]triazolo[4,5-H]quinazolin-8-yl)amino)phenyl)methanone], for which the IC50 stood at 0.1 nM on CDK2/cyclin E; 0.6 nM against CDK4/cyclin D1; 3 nM at CDK9/cyclin T1; 4 nM at CDK6/cyclin D3; 7 nM in assay [1]; 3 nM in assay [2]. Further, the figures for the IC50 in assay [3] and in assay [4] were 12 nM and 2 nM, respectively.
As for `C[C@@]1(O)CCC[C@H]1n1nnc2ccc3cnc(Nc4ccc(C(=O)N5CCNCC5)cc4)nc3c21` [Example I-65], the IC50 on CDK2/cyclin E was found to be 0.6 nM; on CDK4/cyclin D1 it was 0.6 nM; at CDK9/cyclin T1, 3 nM; on CDK6/cyclin D3, 3 nM; in assay [1], 35 nM; in assay [2], 8 nM. Moreover, the IC50 was 111 nM in assay [3] and 5 nM in assay [4].

For the origin of these results see patent EP4711369A1, “1H-[1,2,3]TRIAZOLO[4,5-H]QUINAZOLINE COMPOUNDS AS PROTEIN KINASE INHIBITORS” (Chengdu Cynogen Bio-Pharmaceutical Technology Co., Ltd., priority 2023, dated 2024).
